These compounds were tested on ZIKV (assay: ZIKV reporter virus-based antiviral screening on Huh7 cells). Conditions: Huh7 cells infected with recombinant luciferase reporter ZIKV (MOI about 0.1), 48 hrs, luciferase signal.
Format: cell-based, Zika virus
Method in brief: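 Huh7 cells in 2% FBS assay medium infected at MOI about 0.1 with Renilla or Nano luciferase ZIKV premixed with nine-point compound dilutions, 48 hrs at 37° C. Luciferase signal normalized to DMSO controls as 100%; viability optionally by CellTiter-Glo with Rlu virus.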

Question: COC(=O)N[C@H](C(=O)N1[C@H](c2nc(Cl)c(-c3cc4c5c(c3)OCc3cc(-c6[nH]c([C@@H]7C[C@@H]8C[C@@H]8N7C(=O)[C@@H](NC(=O)OC)C(C)C)nc6Cl)cc(c3-5)OC4)[nH]2)C[C@@H]2C[C@@H]21)C(C)C [Compound 11, dimethyl ((2S,2′S)-((1S,1′S,3S,3′S,5S,5′S)-((5,10-dihydrochromeno[5,4,3-cde]chromene-2,7-diyl)bis(4-chloro-1H-imidazole-5,2-diyl))bis(2-azabicyclo[3.1.0]hexane-3,2-diyl))bis(3-methyl-1-oxobutane-1,2-diyl))dicarbamate] was tested. Which EC50 did it give?
Answer: 9.3 nM

Same assay, conditions: Huh7 cells infected with recombinant luciferase reporter ZIKV (MOI about 0.1), 48 hrs, luciferase signal; read-out: EC50

Question: How did the EC50 turn out when “methyl ((S)-1-((S)-2-(5-(7-(4-chloro-2-((S)-1-((methoxycarbonyl)-L-valyl)pyrrolidin-2-yl)-1H-imidazol-5-yl)-5,10-dihydrochromeno[5,4,3-cde]chromen-2-yl)-4-isopropyl-1H-imidazol-2-yl)pyrrolidin-1-yl)-3-methyl-1-oxobutan-2-yl)carbamate [Compound 77]” was run?
Answer: 13.6 nM

Same assay, conditions: Zika virus, Huh-7, 48 h, Huh7 cells infected with recombinant luciferase reporter ZIKV (MOI about 0.1), luciferase signal

Question: With CC[C@H](C)[C@H](NC(=O)OC)C(=O)N1[C@H](C)CC[C@H]1c1nc(Cl)c(-c2cc3c4c(c2)OCc2cc(-c5[nH]c([C@@H]6CC[C@@H](C)N6C(=O)[C@@H](NC(=O)OC)[C@@H](C)CC)nc5Cl)cc(c2-4)OC3)[nH]1 [Compound 63, dimethyl ((2S,2′S,3S,3′S)-((2R,2′R,5S,5′S)-((5,10-dihydrochromeno[5,4,3-cde]chromene-2,7-diyl)bis(4-chloro-1H-imidazole-5,2-diyl))bis(2-methylpyrrolidine-5,1-diyl))bis(3-methyl-1-oxopentane-1,2-diyl))dicarbamate] as the compound, how does the EC50 read?
Answer: 16.4 nM

Question: Which EC50 does the source give for COC(=O)N[C@H](C(=O)N1C[C@@H](OC)C[C@H]1c1nc(Cl)c(-c2cc3c4c(c2)OCc2cc(-c5[nH]c([C@@H]6C[C@H](OC)CN6C(=O)[C@@H](NC(=O)OC)C(C)C)nc5Cl)cc(c2-4)OC3)[nH]1)C(C)C [Compound 4, dimethyl ((2S,2′S)-((3S,3′S,5S,5′S)-((5,10-dihydrochromeno[5,4,3-cde]chromene-2,7-diyl)bis(4-chloro-1H-imidazole-5,2-diyl))bis(3-methoxypyrrolidine-5,1-diyl))bis(3-methyl-1-oxobutane-1,2-diyl))dicarbamate] here?
Answer: 19.2 nM

Question: CC[C@H](C)[C@H](NC(=O)OC)C(=O)N1CC2(CC2)C[C@@H]1c1nc(Cl)c(-c2cc3c4c(c2)OCc2cc(-c5[nH]c([C@H]6CC7(CC7)CN6C(=O)[C@@H](NC(=O)OC)[C@@H](C)CC)nc5C(C)C)cc(c2-4)OC3)[nH]1 [Compound 78, methyl ((2S,3S)-1-((R)-6-(5-(7-(4-chloro-2-((R)-5-((methoxycarbonyl)-L-isoleucyl)-5-azaspiro[2.4]heptan-6-yl)-1H-imidazol-5-yl)-5,10-dihydrochromeno[5,4,3-cde]chromen-2-yl)-4-isopropyl-1H-imidazol-2-yl)-5-azaspiro[2.4]heptan-5-yl)-3-methyl-1-oxopentan-2-yl)carbamate] was tested. Which EC50 did it give?
Answer: > 1000 nM

Question: CC[C@H](C)[C@H](NC(=O)OC)C(=O)N1C[C@@H](OC)C[C@H]1c1nc(Cl)c(-c2cc3c4c(c2)OCc2cc(-c5[nH]c([C@@H]6C[C@H](OC)CN6C(=O)[C@@H](NC(=O)OC)[C@@H](C)CC)nc5Cl)cc(c2-4)OC3)[nH]1 [Compound 5, dimethyl ((2S,2′S,3S,3′S)-((3S,3′S,5S,5′S)-((5,10-dihydrochromeno[5,4,3-cde]chromene-2,7-diyl)bis(4-chloro-1H-imidazole-5,2-diyl))bis(3-methoxypyrrolidine-5,1-diyl))bis(3-methyl-1-oxopentane-1,2-diyl))dicarbamate] was tested. Which EC50 did it give?
Answer: 12.4 nM

Question: CC[C@H](C)[C@H](NC(=O)OC)C(=O)N1[C@@H](C)CC[C@H]1c1nc(Cl)c(-c2cc3c4c(c2)OCc2cc(-c5[nH]c([C@@H]6CC[C@H](C)N6C(=O)[C@@H](NC(=O)OC)[C@@H](C)CC)nc5C(C)C)cc(c2-4)OC3)[nH]1 [Compound 44, methyl ((2S,3S)-1-((2S,5S)-2-(5-(7-(4-chloro-2-((2S,5S)-1-((methoxycarbonyl)-L-isoleucyl)-5-methylpyrrolidin-2-yl)-1H-imidazol-5-yl)-5,10-dihydrochromeno[5,4,3-cde]chromen-2-yl)-4-isopropyl-1H-imidazol-2-yl)-5-methylpyrrolidin-1-yl)-3-methyl-1-oxopentan-2-yl)carbamate] was tested. Which EC50 did it give?
Answer: 1.9 nM

Question: With COC(=O)N[C@H](C(=O)N1[C@@H](C)CC[C@H]1c1nc(Cl)c(-c2cc3c4c(c2)OCc2cc(-c5[nH]c([C@@H]6CC[C@H](C)N6C(=O)[C@@H](NC(=O)OC)C(C)C)nc5Cl)cc(c2-4)OC3)[nH]1)C(C)C [Compound 74, dimethyl ((2S,2′S)-((2S,2′S, 5S,5′S)-((5,10-dihydrochromeno[5,4,3-cde]chromene-2,7-diyl)bis(4-chloro-1H-imidazole-5,2-diyl))bis(2-methylpyrrolidine-5,1-diyl))bis(3-methyl-1-oxobutane-1,2-diyl))dicarbamate] as the compound, how does the EC50 read?
Answer: 2 nM

Question: For COC(=O)N[C@H](C(=O)N1[C@@H](C)CC[C@H]1c1nc(Cl)c(-c2cc3c4c(c2)OCc2cc(-c5[nH]c([C@@H]6CC[C@H](C)N6C(=O)[C@@H](NC(=O)OC)C(C)(C)C)nc5Cl)cc(c2-4)OC3)[nH]1)C(C)(C)C [Compound 31, dimethyl ((2S,2′S)-((2S,2′S,5S,5′S)-((5,10-dihydrochromeno[5,4,3-cde]chromene-2,7-diyl)bis(4-chloro-1H-imidazole-5,2-diyl))bis(2-methylpyrrolidine-5,1-diyl))bis(3,3-dimethyl-1-oxobutane-1,2-diyl))dicarbamate], which EC50 is on record?
Answer: 1.1 nM

Question: For CC[C@H](C)[C@H](NC(=O)OC)C(=O)N1C[C@@H](C)C[C@H]1c1ncc(-c2cc3c4c(c2)OCc2cc(-c5[nH]c([C@@H]6C[C@H](C)CN6C(=O)[C@@H](NC(=O)OC)[C@@H](C)CC)nc5Cl)cc(c2-4)OC3)[nH]1 [Compound 67, methyl ((2S,3S)-1-((2S,4S)-2-(4-chloro-5-(7-(2-((2S,4S)-1-((methoxycarbonyl)-L-isoleucyl)-4-methylpyrrolidin-2-yl)-1H-imidazol-5-yl)-5,10-dihydrochromeno[5,4,3-cde]chromen-2-yl)-1H-imidazol-2-yl)-4-methylpyrrolidin-1-yl)-3-methyl-1-oxopentan-2-yl)carbamate], which EC50 is on record?
Answer: 23.9 nM

Question: Which EC50 does the source give for COC(=O)N[C@H](C(=O)N1C[C@@H](C)C[C@H]1c1nc(Cl)c(-c2cc3c4c(c2)OCc2cc(-c5[nH]c([C@@H]6C[C@H](C)CN6C(=O)[C@@H](NC(=O)OC)C(C)C)nc5Cl)cc(c2-4)OC3)[nH]1)C(C)C [Compound 48, dimethyl ((2S,2′S)-((3S,3′S,5S,5′S)-((5,10-dihydrochromeno[5,4,3-cde]chromene-2,7-diyl)bis(4-chloro-1H-imidazole-5,2-diyl))bis(3-methylpyrrolidine-5,1-diyl))bis(3-methyl-1-oxobutane-1,2-diyl))dicarbamate] here?
Answer: 4.6 nM

Question: COC(=O)N[C@H](C(=O)N1CC(C)(C)C[C@H]1c1nc(Cl)c(-c2cc3c4c(c2)OCc2cc(-c5[nH]c([C@@H]6CC(C)(C)CN6C(=O)[C@@H](NC(=O)OC)C(C)(C)C(F)(F)F)nc5Cl)cc(c2-4)OC3)[nH]1)C(C)(C)C(F)(F)F [Compound 9, dimethyl ((2S,2′S)-((5S,5′S)-((5,10-dihydrochromeno[5,4,3-cde]chromene-2,7-diyl)bis(4-chloro-1H-imidazole-5,2-diyl))bis(3,3-dimethylpyrrolidine-5,1-diyl))bis(4,4,4-trifluoro-3,3-dimethyl-1-oxobutane-1,2-diyl))dicarbamate] was tested. Which EC50 did it give?
Answer: 4.6 nM

Source: US12497408B2, “Tetracyclic compounds and methods for the treatment of Zika virus infection” (priority 2021, dated 2025)
